Measurements published in patent EP0531958A1, “6-Aminoquinolones, their synthesis and their use as antibacterial agents” (MEDIOLANUM FARMACEUTICI S.P.A., priority 1991, dated 1993).
≈ marks a conversion by molar mass, not a printed value. Where two headings read alike, the source gives them in different places.

Experiments:
Assay type in all cases: cell-based
Gram + = assay: MIC test, average over the 5 gram-positive test germs; settings: 24 h
Procedure: (§1) As to the antibacterial activity, there was determined the Least (Minimum) Inhibiting Concentration (MIC), by working according to the following operative conditions.
(§2) There were used suspensions of test germs (5 gram-positive and 15 gram-negative) having a known titre, kept freezed at -80°C and diluted, at the time of use, in peptonized water up to a concentration of 1-2.10⁷ cfu/ml.
(§3) A few mg of the products, according to the invention were weighed sufficient for preparing parent solutions in DMSO + NaOH (1N) containing 2560 µg/ml (64µg/ml/dish). From the thus prepared parent solutions there were prepared 12 serial dilutions (1:2) down to the concentration of 1.25 µg/ml.
(§4) 0.5 ml of the different dilutions of each product were distributed on dishes containing 19.5 ml of agarized medium (TSA), maintained in a fluid state at the temperature of 50°C. After slight stirring, the dishes were made to solidify and dry under hood (laminar flow).
(§5) The MIC tests (Least or "Minimum" Inhibiting Concentration) were performed by using a Steers multiwell inoculator having 36 wells, each containing 200 µl of bacterial suspension.
(§6) After inoculation, the dishes were placed into a thermostat and checked after 24 h of incubation at 35°C.
(§7) The MIC is defined as the lowermost product concentration (µg/ml) inhibiting the visible growth of the microorganisms.

[1] = tested on: Acinebacter calcoloaceticus OSMPV 1130; assay: MIC test, agar dilution with Steers multiwell inoculator; settings: TSA dishes, 24 h at 35°C, read-out: Minimum Inhibiting Concentration
Procedure: as §1, §2, §3, §4, §5, §6, §7

[2] = tested on: Enterobacter cloacae OMNF 1153; assay: as above; settings: OMNF1153, TSA dishes, 24 h at 35°C, read-out: Minimum Inhibiting Concentration
Procedure: as §1, §2, §3, §4, §5, §6, §7

[3] = tested on: Enterobacter cloacae OMNF 1174; assay: as above; settings: OMNF1174, TSA dishes, 24 h at 35°C, read-out: Minimum Inhibiting Concentration
Procedure: as §1, §2, §3, §4, §5, §6, §7

Escherichia coli 120 = assay: as above; settings: TSA dishes, 24 h at 35°C, read-out: Minimum Inhibiting Concentration
Procedure: as §1, §2, §3, §4, §5, §6, §7

[4] = tested on: Escherichia coli ATCC 8739; assay: as above; settings: ATCC8739, TSA dishes, 24 h at 35°C, read-out: Minimum Inhibiting Concentration
Procedure: as §1, §2, §3, §4, §5, §6, §7

Escherichia coli CNUR 1 = assay: as above; settings: CNUR1, TSA dishes, 24 h at 35°C, read-out: Minimum Inhibiting Concentration
Procedure: as §1, §2, §3, §4, §5, §6, §7

Escherichia coli CNUR 8 = assay: as above; settings: CNUR8, TSA dishes, 24 h at 35°C, read-out: Minimum Inhibiting Concentration
Procedure: as §1, §2, §3, §4, §5, §6, §7

Escherichia coli ISF 432 = assay: as above; settings: ISF432, TSA dishes, 24 h at 35°C, read-out: Minimum Inhibiting Concentration
Procedure: as §1, §2, §3, §4, §5, §6, §7

[5] = tested on: Klebsiella pneumoniae ATCC 10031; assay: as above; settings: ATCC10031, TSA dishes, 24 h at 35°C, read-out: Minimum Inhibiting Concentration
Procedure: as §1, §2, §3, §4, §5, §6, §7

Proteus vulgaris CNUR 6 = assay: as above; settings: CNUR6, TSA dishes, 24 h at 35°C, read-out: Minimum Inhibiting Concentration
Procedure: as §1, §2, §3, §4, §5, §6, §7

[6] = tested on: Providencia stuardii CNUR 5; assay: as above; settings: CNUR5, TSA dishes, 24 h at 35°C, read-out: Minimum Inhibiting Concentration
Procedure: as §1, §2, §3, §4, §5, §6, §7

[7] = tested on: Pseudomonas aeruginosa ATCC 9027; assay: as above; settings: ATCC9027, TSA dishes, 24 h at 35°C, read-out: Minimum Inhibiting Concentration
Procedure: as §1, §2, §3, §4, §5, §6, §7

[8] = tested on: Pseudomonas aeruginosa CNUR 2; assay: as above; settings: CNUR2, TSA dishes, 24 h at 35°C, read-out: Minimum Inhibiting Concentration
Procedure: as §1, §2, §3, §4, §5, §6, §7

[9] = tested on: Pseudomonas aeruginosa CNUR 4; assay: as above; settings: CNUR4, TSA dishes, 24 h at 35°C, read-out: Minimum Inhibiting Concentration
Procedure: as §1, §2, §3, §4, §5, §6, §7

Shighella enteritidis = assay: as above; settings: TSA dishes, 24 h at 35°C, read-out: Minimum Inhibiting Concentration
Procedure: as §1, §2, §3, §4, §5, §6, §7

[10] = tested on: Staphylococcus aureus ATCC 6538; assay: as above; settings: ATCC6538, TSA dishes, 24 h at 35°C, read-out: Minimum Inhibiting Concentration
Procedure: as §1, §2, §3, §4, §5, §6, §7

[11] = tested on: Staphylococcus aureus MPR 5; assay: as above; settings: MPR5, TSA dishes, 24 h at 35°C, read-out: Minimum Inhibiting Concentration
Procedure: as §1, §2, §3, §4, §5, §6, §7

[12] = tested on: Staphylococcus epidermidis CPHL A2; assay: as above; settings: CPHLA2, TSA dishes, 24 h at 35°C, read-out: Minimum Inhibiting Concentration
Procedure: as §1, §2, §3, §4, §5, §6, §7

[13] = tested on: Staphylococcus epidermidis HCF Berset C.; assay: as above; settings: TSA dishes, 24 h at 35°C, read-out: Minimum Inhibiting Concentration
Procedure: as §1, §2, §3, §4, §5, §6, §7

[14] = tested on: Streptococcus facealis LEP Br.; assay: as above; settings: TSA dishes, 24 h at 35°C, read-out: Minimum Inhibiting Concentration
Procedure: as §1, §2, §3, §4, §5, §6, §7

Gram - = assay: MIC test, average over the 15 gram-negative test germs; settings: 24 h
Procedure: as §1, §2, §3, §4, §5, §6, §7

[15] = geometrical average of the MIC over the 15 Gram - strains, read-out: Geometrical Average
[16] = mean log of the MIC over the 15 Gram - strains, read-out: Log (converted)
[17] = geometrical average of the MIC over the 5 Gram + strains, read-out: Geometrical Average

| SMILES | MIC (Gram +; read-out: Log (converted)) [µg/mL] | MIC [1] [µg/mL] | MIC [2] [µg/mL] | MIC [3] [µg/mL] | MIC (Escherichia coli 120) [µg/mL] | MIC [4] [µg/mL] | MIC (Escherichia coli CNUR 1) [µg/mL] | MIC (Escherichia coli CNUR 8) [µg/mL] | MIC (Escherichia coli ISF 432) [µg/mL] | MIC [5] [µg/mL] | MIC (Proteus vulgaris CNUR 6) [µg/mL] | MIC [6] [µg/mL] | MIC [7] [µg/mL] | MIC [8] [µg/mL] | MIC [9] [µg/mL] | MIC [10] [µg/mL] | MIC [11] [µg/mL] | MIC [12] [µg/mL] | MIC [13] [µg/mL] | MIC [14] [µg/mL] | also measured |
| --- | --- | --- | --- | --- | --- | --- | --- | --- | --- | --- | --- | --- | --- | --- | --- | --- | --- | --- | --- | --- | --- |
| CN1CCN(c2cc3c(cc2N)c(=O)c(C(=O)O)cn3C2CC2)CC1 [Compound 8] | 4 (≈ 11.7 µM) | 4 (≈ 11.7 µM) | 0.25 (≈ 0.73 µM) | 0.25 (≈ 0.73 µM) | 0.12 (≈ 0.35 µM) | 0.25 (≈ 0.73 µM) | 0.25 (≈ 0.73 µM) | 0.12 (≈ 0.35 µM) | 0.03 (≈ 0.0876 µM) | 0.03 (≈ 0.0876 µM) | 64 (≈ 187 µM) | 8 (≈ 23.4 µM) | 4 (≈ 11.7 µM) | 16 (≈ 46.7 µM) | 64 (≈ 187 µM) | 2 (≈ 5.84 µM) | 2 (≈ 5.84 µM) | 2 (≈ 5.84 µM) | 4 (≈ 11.7 µM) | 32 (≈ 93.5 µM) | MIC (Shighella enteritidis): 0.25 µg/mL (≈ 0.73 µM); MIC (Gram -; [15]): 0.861 µg/mL (≈ 2.51 µM); MIC (Gram -; [16]): 0.861 µg/mL (≈ 2.51 µM) |
| Nc1cc2c(=O)c(C(=O)O)cn(C3CC3)c2cc1N1CCNCC1 [Compound 9] | 42.2 (≈ 128 µM) | 16 (≈ 48.7 µM) | 0.5 (≈ 1.52 µM) | 0.25 (≈ 0.761 µM) | 0.25 (≈ 0.761 µM) | 0.25 (≈ 0.761 µM) | 0.25 (≈ 0.761 µM) | 0.25 (≈ 0.761 µM) | 0.03 (≈ 0.0914 µM) | 0.25 (≈ 0.761 µM) | 32 (≈ 97.5 µM) | 32 (≈ 97.5 µM) | 2 (≈ 6.09 µM) | 8 (≈ 24.4 µM) | 64 (≈ 195 µM) | 64 (≈ 195 µM) | 64 (≈ 195 µM) | 16 (≈ 48.7 µM) | 16 (≈ 48.7 µM) | 128 (≈ 390 µM) | MIC (Gram +; [17]): 42.2 µg/mL; MIC (Shighella enteritidis): 0.5 µg/mL (≈ 1.52 µM); MIC (Gram -; [15]): 1.26 µg/mL (≈ 3.82 µM); MIC (Gram -; [16]): 1.26 µg/mL (≈ 3.83 µM) |
| Nc1cc2c(=O)c(C(=O)O)cn(C3CC3)c2cc1N1CCC(O)CC1 [Compound 16] | 4 (≈ 11.6 µM) | 2 (≈ 5.82 µM) | 2 (≈ 5.82 µM) | 2 (≈ 5.82 µM) | 0.5 (≈ 1.46 µM) | 0.03 (≈ 0.0874 µM) | 2 (≈ 5.82 µM) | 1 (≈ 2.91 µM) | 0.03 (≈ 0.0874 µM) | 0.03 (≈ 0.0874 µM) | 128 (≈ 373 µM) | 8 (≈ 23.3 µM) | 8 (≈ 23.3 µM) | 128 (≈ 373 µM) | 128 (≈ 373 µM) | 4 (≈ 11.6 µM) | 4 (≈ 11.6 µM) | 2 (≈ 5.82 µM) | 4 (≈ 11.6 µM) | 8 (≈ 23.3 µM) | MIC (Gram +; [17]): 4 µg/mL; MIC (Gram -; [15]): 2.08 µg/mL (≈ 6.05 µM); MIC (Gram -; [16]): 2.07 µg/mL (≈ 6.04 µM) |
| Cc1c(N2CCc3ccccc3C2)c(N)cc2c(=O)c(C(=O)O)cn(C3CC3)c12 [Compound 36, 6-amino-1-cyclopropyl-8-methyl-7-[2-(1,2,3,4-tetrahydroisoquinolinyl)]-carboxylic acid] | 1.15 (≈ 2.95 µM) | 8 (≈ 20.5 µM) | 8 (≈ 20.5 µM) | 8 (≈ 20.5 µM) | 2 (≈ 5.14 µM) | 0.12 (≈ 0.308 µM) | 4 (≈ 10.3 µM) | 2 (≈ 5.14 µM) | 0.25 (≈ 0.642 µM) | 0.12 (≈ 0.308 µM) | 64 (≈ 164 µM) | 2 (≈ 5.14 µM) | 32 (≈ 82.2 µM) | 8 (≈ 20.5 µM) | 128 (≈ 329 µM) | 0.5 (≈ 1.28 µM) | 0.5 (≈ 1.28 µM) | 1 (≈ 2.57 µM) | 2 (≈ 5.14 µM) | 4 (≈ 10.3 µM) | MIC (Gram +; [17]): 1.15 µg/mL; MIC (Gram -; [15]): 3.98 µg/mL (≈ 10.2 µM); MIC (Gram -; [16]): 3.98 µg/mL (≈ 10.2 µM) |
| Nc1cc2c(=O)c(C(=O)O)cn(-c3ccc(F)cc3)c2cc1N1CCSCC1 [Compound 51] | 2.3 (≈ 5.75 µM) | 4 (≈ 10 µM) | 4 (≈ 10 µM) | 4 (≈ 10 µM) | 0.5 (≈ 1.25 µM) | 0.06 (≈ 0.15 µM) | 4 (≈ 10 µM) | 0.5 (≈ 1.25 µM) | 0.03 (≈ 0.0751 µM) | 0.03 (≈ 0.0751 µM) | 128 (≈ 320 µM) | 4 (≈ 10 µM) | 128 (≈ 320 µM) | 128 (≈ 320 µM) | 128 (≈ 320 µM) | 0.5 (≈ 1.25 µM) | 0.5 (≈ 1.25 µM) | 2 (≈ 5.01 µM) | 2 (≈ 5.01 µM) | 64 (≈ 160 µM) | MIC (Gram +; [17]): 2.3 µg/mL; MIC (Gram -; [15]): 3.01 µg/mL (≈ 7.53 µM); MIC (Gram -; [16]): 3.01 µg/mL (≈ 7.53 µM) |
| Nc1cc2c(=O)c(C(=O)O)cn(-c3ccc(F)cc3)c2cc1N1CCc2ccccc2C1 [Compound 52, 6-amino-1-(4-fluorophenyl)-7-[2-(1,2,3,4-tetrahydroisoquinolinyl)]-1,4-dihydro-4-oxo-quinoline carboxylic acid] | 3.03 (≈ 7.06 µM) | 4 (≈ 9.31 µM) | 8 (≈ 18.6 µM) | 4 (≈ 9.31 µM) | 1 (≈ 2.33 µM) | 0.12 (≈ 0.279 µM) | 4 (≈ 9.31 µM) | 1 (≈ 2.33 µM) | 0.12 (≈ 0.279 µM) | 0.12 (≈ 0.279 µM) | 128 (≈ 298 µM) | 8 (≈ 18.6 µM) | 128 (≈ 298 µM) | 128 (≈ 298 µM) | 128 (≈ 298 µM) | 0.5 (≈ 1.16 µM) | 1 (≈ 2.33 µM) | 2 (≈ 4.66 µM) | 4 (≈ 9.31 µM) | 64 (≈ 149 µM) | MIC (Gram +; [17]): 3.03 µg/mL; MIC (Gram -; [15]): 4.56 µg/mL (≈ 10.6 µM); MIC (Gram -; [16]): 4.56 µg/mL (≈ 10.6 µM) |
